Source: patent publication US8642585B2, “Indanyloxydihydrobenzofuranylacetic acids” (Boehringer Ingelheim International GmbH, priority 2012, dated 2014)

Biological target: human GPR40 receptor (Homo sapiens, UniProt O14842)
Test: Assay II: IP1 accumulation (IPOne HTRF) in 1321N1 cells stably expressing human GPR40
Assay type: cell-based
Details: 1321N1 cells expressing human GPR40, stimulation 1 h at 37° C., 5% CO2, LiCl 50 mM
Description: IP1 accumulation measurements using the IPOne assay system—1321N1 cells stably expressing human GPR40 receptor (Euroscreen, Belgium) are seeded 24 h before the assay in white 384-well plates in culture medium containing 10% FCS, 1% Na-Pyruvate and 400 μg/mL G418. IP1 is assayed according to the manufacturers description (Cisbio Bioassays, France). In brief, the assay is started by substitution of the culture medium by stimulation buffer (Hepes 10 mM, CaCl2 1 mM, MgCl2 0.5 mM, KCl 4.2 mM, NaCl 146 mM, glucose 5.5 mM and LiCl 50 mM, pH 7.4). Cells are stimulated for 1 h at 37° C., 5% CO2 by addition of the compounds that are diluted in stimulation buffer containing LiCl. Assays are stopped by adding HTRF-conjugates (IP1-d2 and Anti-IP1 cryptate Tb) and lysis buffer, provided by the manufacturer. After an incubation time of 1 h at room temperature plates are measured using an EnVision™, Perkin Elmer. The obtained fluorescence ratios at 665/615 nM are then used to calculate the pEC50 values using Assay Explorer 3.3 Software (Accelrys, Inc.) by interpolation using an IP1 reference curve and subsequent sigmoidal curve fitting allowing for a variable hill slope.

Chain of human GPR40 receptor (O14842 whole entry): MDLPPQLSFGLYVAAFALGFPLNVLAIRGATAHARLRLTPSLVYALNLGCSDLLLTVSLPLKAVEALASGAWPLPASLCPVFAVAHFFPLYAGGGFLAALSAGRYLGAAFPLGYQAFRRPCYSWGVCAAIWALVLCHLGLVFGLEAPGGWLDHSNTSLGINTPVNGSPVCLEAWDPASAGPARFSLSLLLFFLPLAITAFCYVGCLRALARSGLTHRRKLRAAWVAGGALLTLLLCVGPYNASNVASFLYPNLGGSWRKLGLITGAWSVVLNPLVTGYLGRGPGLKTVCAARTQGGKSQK

Structure (SMILES)	EC50
CC(=O)NCCOc1cc(C)c(-c2ccc(F)c3c2CC[C@H]3Oc2ccc3c(c2)OC[C@H]3CC(=O)O)c(C)c1 [Example 73, 2-((S)-6-((R)-4-(4-(2-Acetamidoethoxy)-2,6-dimethylphenyl)-7-fluoro-2,3-dihydro-1H-inden-1-yloxy)-2,3-dihydrobenzofuran-3-yl)acetic acid]	13 nM
Cc1cc(CCNS(C)(=O)=O)cc(C)c1-c1ccc(F)c2c1CC[C@H]2Oc1ccc2c(c1)OC[C@H]2CC(=O)O [Example 74, 2-((S)-6-((R)-4-(2,6-dimethyl-4-(2-(methylsulfonamido)ethyl)phenyl)-7-fluoro-2,3-dihydro-1H-inden-1-yloxy)-2,3-dihydrobenzofuran-3-yl)acetic acid]	40 nM
Cc1cc(OCC2(O)CC2)cc(C)c1-c1ccc(F)c2c1CC[C@H]2Oc1ccc2c(c1)OC[C@H]2CC(=O)O [Example 75, 2-((S)-6-((R)-7-Fluoro-4-(4-((1-hydroxycyclopropyl)methoxy)-2,6-dimethylphenyl)-2,3-dihydro-1H-inden-1-yloxy)-2,3-dihydrobenzofuran-3-yl)acetic acid]	17 nM
Cc1cc(OC2CCN(C)C2=O)cc(C)c1-c1ccc(F)c2c1CC[C@H]2Oc1ccc2c(c1)OC[C@H]2CC(=O)O (stereo partly drawn) [Example 76, 2-((3S)-6-((1R)-4-(2,6-Dimethyl-4-(1-methyl-2-oxopyrrolidin-3-yloxy)phenyl)-7-fluoro-2,3-dihydro-1H-inden-1-yloxy)-2,3-dihydrobenzofuran-3-yl)acetic acid]	27 nM
Cc1cc(OCC(C)(C)CS(C)(=O)=O)cc(C)c1-c1ccc(F)c2c1CC[C@H]2Oc1ccc2c(c1)OC[C@H]2CC(=O)O [Example 77, 2-((S)-6-((R)-4-(4-(2,2-Dimethyl-3-(methylsulfonyl)propoxy)-2,6-dimethylphenyl)-7-fluoro-2,3-dihydro-1H-inden-1-yloxy)-2,3-dihydrobenzofuran-3-yl)acetic acid]	10 nM
Cc1cc(C2CCOCC2)cc(C)c1-c1ccc(F)c2c1CC[C@H]2Oc1ccc2c(c1)OC[C@H]2CC(=O)O [Example 80, 2-((S)-6-((R)-4-(2,6-Dimethyl-4-(tetrahydro-2H-pyran-4-yl)phenyl)-7-fluoro-2,3-dihydro-1H-inden-1-yloxy)-2,3-dihydrobenzofuran-3-yl)acetic acid]	11 nM
Cc1cc(C2=CC(=O)OCC2)cc(C)c1-c1ccc(F)c2c1CC[C@H]2Oc1ccc2c(c1)OC[C@H]2CC(=O)O [Example 81, 2-((S)-6-((R)-4-(2,6-Dimethyl-4-(6-oxo-3,6-dihydro-2H-pyran-4-yl)phenyl)-7-fluoro-2,3-dihydro-1H-inden-1-yloxy)-2,3-dihydrobenzofuran-3-yl)acetic acid]	8 nM
COCc1cc(OCC2(C)COC2)cc(COC)c1-c1ccc(F)c2c1CC[C@H]2Oc1ccc2c(c1)OC[C@H]2CC(=O)O [Example 82, 2-((S)-6-((R)-4-(2,6-Bis(methoxymethyl)-4-((3-methyloxetan-3-yl)methoxy)phenyl)-7-fluoro-2,3-dihydro-1H-inden-1-yloxy)-2,3-dihydrobenzofuran-3-yl)acetic acid]	14 nM
Cc1cc(-c2cnn(CC(C)(C)O)c2)cc(C)c1-c1ccc(F)c2c1CC[C@H]2Oc1ccc2c(c1)OC[C@H]2CC(=O)O [Example 83, 2-((S)-6-((R)-7-Fluoro-4-(4-(1-(2-hydroxy-2-methylpropyl)-1H-pyrazol-4-yl)-2,6-dimethylphenyl)-2,3-dihydro-1H-inden-1-yloxy)-2,3-dihydrobenzofuran-3-yl)acetic acid]	6 nM
Cc1cc(-c2ccn(C)c(=O)c2)cc(C)c1-c1ccc(F)c2c1CC[C@H]2Oc1ccc2c(c1)OC[C@H]2CC(=O)O [Example 84, 2-((S)-6-((R)-4-(2,6-Dimethyl-4-(1-methyl-2-oxo-1,2-dihydropyridin-4-yl)phenyl)-7-fluoro-2,3-dihydro-1H-inden-1-yloxy)-2,3-dihydrobenzofuran-3-yl)acetic acid]	9 nM
Cc1cc(-c2ccc(=O)n(C)c2)cc(C)c1-c1ccc(F)c2c1CC[C@H]2Oc1ccc2c(c1)OC[C@H]2CC(=O)O [Example 85, 2-((S)-6-((R)-4-(2,6-Dimethyl-4-(1-methyl-6-oxo-1,6-dihydropyridin-3-yl)phenyl)-7-fluoro-2,3-dihydro-1H-inden-1-yloxy)-2,3-dihydrobenzofuran-3-yl)acetic acid]	7 nM
Cc1cc(-n2cncn2)cc(C)c1-c1ccc(F)c2c1CC[C@H]2Oc1ccc2c(c1)OC[C@H]2CC(=O)O [Example 86, 2-((S)-6-((R)-4-(2,6-Dimethyl-4-(1H-1,2,4-triazol-1-yl)phenyl)-7-fluoro-2,3-dihydro-1H-inden-1-yloxy)-2,3-dihydrobenzofuran-3-yl)acetic acid]	8 nM
Cc1cc(C2CCOC2)cc(C)c1-c1ccc(F)c2c1CC[C@H]2Oc1ccc2c(c1)OC[C@H]2CC(=O)O (stereo partly drawn) [Example 87, 2-((3S)-6-((1R)-4-(2,6-Dimethyl-4-(tetrahydrofuran-3-yl)phenyl)-7-fluoro-2,3-dihydro-1H-inden-1-yloxy)-2,3-dihydrobenzofuran-3-yl)acetic acid]	24 nM
Cc1cc(-c2cc(=O)n(C)cn2)cc(C)c1-c1ccc(F)c2c1CC[C@H]2Oc1ccc2c(c1)OC[C@H]2CC(=O)O [Example 88, 2-((S)-6-((R)-4-(2,6-Dimethyl-4-(1-methyl-6-oxo-1,6-dihydropyrimidin-4-yl)phenyl)-7-fluoro-2,3-dihydro-1H-inden-1-yloxy)-2,3-dihydrobenzofuran-3-yl)acetic acid]	3 nM
Cc1cc(-c2cnc(=O)n(C)c2)cc(C)c1-c1ccc(F)c2c1CC[C@H]2Oc1ccc2c(c1)OC[C@H]2CC(=O)O [Example 89, 2-((S)-6-((R)-4-(2,6-Dimethyl-4-(1-methyl-2-oxo-1,2-dihydropyrimidin-5-yl)phenyl)-7-fluoro-2,3-dihydro-1H-inden-1-yloxy)-2,3-dihydrobenzofuran-3-yl)acetic acid]	9 nM
Cc1cc(-c2ccnnc2)cc(C)c1-c1ccc(F)c2c1CC[C@H]2Oc1ccc2c(c1)OC[C@H]2CC(=O)O [Example 90, 2-((S)-6-((R)-4-(2,6-Dimethyl-4-(pyridazin-4-yl)phenyl)-7-fluoro-2,3-dihydro-1H-inden-1-yloxy)-2,3-dihydrobenzofuran-3-yl)acetic acid]	5 nM
Cc1cc(-c2ccncn2)cc(C)c1-c1ccc(F)c2c1CC[C@H]2Oc1ccc2c(c1)OC[C@H]2CC(=O)O [Example 91, 2-((S)-6-((R)-4-(2,6-Dimethyl-4-(pyrimidin-4-yl)phenyl)-7-fluoro-2,3-dihydro-1H-inden-1-yloxy)-2,3-dihydrobenzofuran-3-yl)acetic acid]	3 nM
Cc1cc(-c2cnn(C)c(=O)c2)cc(C)c1-c1ccc(F)c2c1CC[C@H]2Oc1ccc2c(c1)OC[C@H]2CC(=O)O [Example 92, 2-((S)-6-((R)-4-(2,6-Dimethyl-4-(1-methyl-6-oxo-1,6-dihydropyridazin-4-yl)phenyl)-7-fluoro-2,3-dihydro-1H-inden-1-yloxy)-2,3-dihydrobenzofuran-3-yl)acetic acid]	5 nM
COc1nccc(-c2cc(C)c(-c3ccc(F)c4c3CC[C@H]4Oc3ccc4c(c3)OC[C@H]4CC(=O)O)c(C)c2)n1 [Example 93]	4 nM
Cc1cc(-c2nnn[nH]2)cc(C)c1-c1ccc(F)c2c1CC[C@H]2Oc1ccc2c(c1)OC[C@H]2CC(=O)O [Example 94, 2-((S)-6-((R)-4-(2,6-Dimethyl-4-(1H-tetrazol-5-yl)phenyl)-7-fluoro-2,3-dihydro-1H-inden-1-yloxy)-2,3-dihydrobenzofuran-3-yl)acetic acid]	82 nM
Cc1cc(-c2nnn(C)n2)cc(C)c1-c1ccc(F)c2c1CC[C@H]2Oc1ccc2c(c1)OC[C@H]2CC(=O)O [Example 95, 2-((S)-6-((R)-4-(2,6-Dimethyl-4-(2-methyl-2H-tetrazol-5-yl)phenyl)-7-fluoro-2,3-dihydro-1H-inden-1-yloxy)-2,3-dihydrobenzofuran-3-yl)acetic acid]	3 nM
Cc1cc(-c2nnnn2C)cc(C)c1-c1ccc(F)c2c1CC[C@H]2Oc1ccc2c(c1)OC[C@H]2CC(=O)O [Example 96, 2-((S)-6-((R)-4-(2,6-Dimethyl-4-(1-methyl-1H-tetrazol-5-yl)phenyl)-7-fluoro-2,3-dihydro-1H-inden-1-yloxy)-2,3-dihydrobenzofuran-3-yl)acetic acid]	20 nM
Cc1cc(-c2ccn(C)c(=O)n2)cc(C)c1-c1ccc(F)c2c1CC[C@H]2Oc1ccc2c(c1)OC[C@H]2CC(=O)O [Example 97, 2-((S)-6-((R)-4-(2,6-Dimethyl-4-(1-methyl-2-oxo-1,2-dihydropyrimidin-4-yl)phenyl)-7-fluoro-2,3-dihydro-1H-inden-1-yloxy)-2,3-dihydrobenzofuran-3-yl)acetic acid]	5 nM
Cc1cc(-c2nnn(CC(C)(C)O)n2)cc(C)c1-c1ccc(F)c2c1CC[C@H]2Oc1ccc2c(c1)OC[C@H]2CC(=O)O [Example 98, 2-((S)-6-((R)-7-Fluoro-4-(4-(2-(2-hydroxy-2-methylpropyl)-2H-tetrazol-5-yl)-2,6-dimethylphenyl)-2,3-dihydro-1H-inden-1-yloxy)-2,3-dihydrobenzofuran-3-yl)acetic acid]	3 nM
